Source: paper PMC8509773, “3-Pyridinylidene Derivatives of Chemically Modified Lupane and Ursane Triterpenes as Promising Anticancer Agents by Targeting Apoptosis” (International Journal of Molecular Sciences, 2021)

Columns and labels:
[1] = test system: MDA-MB-435; assay: NCI-60 SRB screening (one-dose and five-dose); format: cell-based, human; conditions: 48 h
How it was run: (§1)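 After a 48-h incubation with compound, cellular protein was stained with SRB and growth estimated by spectrophotometry relative to untreated controls.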

[2] = test system: SF-268; assay: NCI-60 SRB screening (one-dose and five-dose); format: cell-based, human; conditions: 48 h
How it was run: (§2)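 Cells received compound at one concentration for 48 h. Growth was read by sulforhodamine B protein staining, as percentage versus untreated controls. Mean graph midpoints averaged each parameter over all cell lines, with insensitive lines entered at the highest tested concentration.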

[3] = test system: DU-145; assay: NCI-60 SRB screening (one-dose and five-dose); format: cell-based, human; conditions: 48 h
How it was run: (§3)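 Growth inhibition is scored with sulforhodamine B after 48 h of continuous compound exposure. An MG_MID averages each parameter over the whole cell panel, insensitive lines being counted at the top tested concentration.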

[4] = test system: UACC-257; assay: NCI-60 SRB screening (one-dose and five-dose); format: cell-based, human; conditions: 48 h
How it was run: as §1

[5] = test system: MOLT-4; assay: NCI-60 SRB screening (one-dose and five-dose); format: cell-based, human; conditions: 48 h
How it was run: as §2

[6] = test system: 786-0; assay: NCI-60 SRB screening (one-dose and five-dose); format: cell-based, human; conditions: 48 h
How it was run: as §1

[7] = test system: SNB-75; assay: NCI-60 SRB screening (one-dose and five-dose); format: cell-based, human; conditions: 48 h
How it was run: as §3

[8] = test system: A549/ATCC; assay: NCI-60 SRB screening (one-dose and five-dose); format: cell-based, human; conditions: 48 h
How it was run: as §1

[9] = test system: T-47D; assay: NCI-60 SRB screening (one-dose and five-dose); format: cell-based, human; conditions: 48 h
How it was run: as §3

[10] = test system: SK-MEL-5; assay: NCI-60 SRB screening (one-dose and five-dose); format: cell-based, human; conditions: 48 h
How it was run: as §1

[11] = test system: EKVX; assay: NCI-60 SRB screening (one-dose and five-dose); format: cell-based, human; conditions: 48 h
How it was run: as §1

[12] = test system: HCT-116; assay: NCI-60 SRB screening (one-dose and five-dose); format: cell-based, human; conditions: 48 h
How it was run: as §1

[13] = test system: UO-31; assay: NCI-60 SRB screening (one-dose and five-dose); format: cell-based, human; conditions: 48 h
How it was run: as §1

[14] = test system: CCRF-CEM; assay: NCI-60 SRB screening (one-dose and five-dose); format: cell-based, human; conditions: 48 h
How it was run: as §3

[15] = test system: SN12C; assay: NCI-60 SRB screening (one-dose and five-dose); format: cell-based, human; conditions: 48 h
How it was run: as §2

[16] = test system: OVCAR-4; assay: NCI-60 SRB screening (one-dose and five-dose); format: cell-based, human; conditions: 48 h
How it was run: as §3

[17] = test system: ACHN; assay: NCI-60 SRB screening (one-dose and five-dose); format: cell-based, human; conditions: 48 h
How it was run: as §1

[18] = test system: MALME-3M; assay: NCI-60 SRB screening (one-dose and five-dose); format: cell-based, human; conditions: 48 h
How it was run: as §1

[19] = test system: SF-539; assay: NCI-60 SRB screening (one-dose and five-dose); format: cell-based, human; conditions: 48 h
How it was run: as §1

[20] = test system: COLO 205; assay: NCI-60 SRB screening (one-dose and five-dose); format: cell-based, human; conditions: 48 h
How it was run: as §1

[21] = test system: NCI-60 cancer cell line panel; assay: NCI-60 cancer cell line panel screening (whole panel / subpanels); format: cell-based; conditions: for Selectivity index (SI): full panel MG_MID / subpanel MG_MID
Protocol: At first, compounds were tested in a single high dose concentration regimen (10 µM) against a panel of sixty various cancer cell lines; the results of the screening are outlined in Table 1 in the form of percent growth (GP %) of treated cells versus untreated cells used as control, where negative numbers indicate cell kill. The experimental results of growth inhibition may range from 0 to 100 and indicate a cytostatic effect while negative values indicate cell death and thus a cytotoxic activity (for NCI data see Supplementary Material Figures S6–S12).
The selectivity index (SI) was calculated by dividing the full panel MG_MID60 (μM) of tested compounds by their individual subpanel MG_MID of the cell line (μM); it correlates directly to the selectivity of their anticancer activity (Table 3). […] By contrast, despite its strong antiproliferative effect, compound 7 acts with low selectivity against the various human tumor cell lines, the highest SI value being 1.73.
Compounds 1, 2, and 4–8 were tested at one dose assay (10^−5 M) toward a panel of approximately sixty cancer cell lines representing different cancer types: leukemia, melanoma, lung, colon, CNS, ovarian, renal, prostate, and breast cancers. Primary anticancer assays were performed according to the NCI protocol as described elsewhere (see, e.g., http://dtp.nci.nih.gov accessed on 16 October 2019). The compounds were added at a single concentration and the cell cultures were incubated for 48 h. The end point determinations were made with a protein binding dye, sulforhodamine B (SRB). The results for each compound are reported as the percent growth (GP %) of treated cells compared to untreated control cells (negative numbers indicate cell kill). Compounds with considerable activity against all tested human tumor cell lines (6 and 7) were selected for the advanced assay against a panel of approximately sixty tumor cell lines at 10-fold dilutions of five concentrations (100 µM, 10 µM, 1 µM, 0.1 µM, and 0.01 µM). The percentage of growth was evaluated spectrophotometrically versus controls not treated with test agents after 48-h exposure and using SRB protein assay to estimate cell viability or growth. Three antitumor activity dose–response parameters were calculated for each cell line: GI50—molar concentration of the compound that inhibits 50% net cell growth; TGI—molar concentration of the compound leading to the total inhibition; and LC50—molar concentration of the compound leading to 50% net cell death (presented in negative logarithm). Furthermore, mean graph midpoints (MG_MID) were calculated for each of the parameters, giving an average activity parameter over all cell lines for the tested compound. For the MG_MID calculation, insensitive cell lines were included with the highest concentration tested.

[22] = Homo sapiens, five dose 0.01–100 μM

Question: How did the GI50 ([1]; Homo sapiens, MDA-MB-435, MDA-B-435, five dose 0.01–100 μM) turn out when `C[C@H]1[C@@H]2[C@H]3CC[C@@H]4[C@@]5(C)C/C(=C\c6cccnc6)C(=O)C(C)(C)[C@@H]5CC[C@@]4(C)[C@]3(C)CC[C@]23CO[C@@]1(C)[C@@H](C(=O)/C=C/c1cccnc1)C3` [Compound 6, 3-Oxo-2-(3-pyridinylidene)-21-[3-(2E-pyridinyl)-prop-2-en-1-one]-20β,28-epoxy-18α,19βH-ursane] was run?
Answer: Its GI50 is 1090 nM.

Question: And the “Growth Percent” value ([1]; MDA-MB-435, 10 μM)?
Answer: The value was −7.30%.

Question: And the GI50 ([2]; Homo sapiens, SF-268, five dose 0.01–100 μM)?
Answer: The GI50 was 1310 nM.

Question: What about the “Growth Percent” value ([2]; SF-268, 10 μM) of the same compound?
Answer: The value was 7.10%.

Question: And the “Growth Percent” value ([3]; DU-145, 10 μM)?
Answer: The value was −28.80%.

Question: And the GI50 ([3]; Homo sapiens, DU-145, five dose 0.01–100 μM)?
Answer: Its GI50 is 930 nM.

Question: And the GI50 ([4]; Homo sapiens, UACC-257, five dose 0.01–100 μM)?
Answer: The GI50 was 1670 nM.

Question: What about the “Growth Percent” value ([4]; UACC-257, 10 μM) of the same compound?
Answer: Its value is 13.16%.

Question: And the GI50 ([5]; Homo sapiens, MOLT-4, five dose 0.01–100 μM)?
Answer: Its GI50 is 170 nM.

Question: And the “Growth Percent” value ([5]; MOLT-4, 10 μM)?
Answer: Its value is 16.72%.

Question: And the “Growth Percent” value ([6]; 786-0, 10 μM)?
Answer: Its value is −38.97%.

Question: What about the GI50 ([6]; Homo sapiens, 786-0, five dose 0.01–100 μM) of the same compound?
Answer: The GI50 was 920 nM.

Question: And the GI50 ([7]; Homo sapiens, SNB-75, five dose 0.01–100 μM)?
Answer: The GI50 was 1020 nM.

Question: And the “Growth Percent” value ([7]; SNB-75, 10 μM)?
Answer: Its value is 32.69%.

Question: What about the “Growth Percent” value ([8]; 10 μM) of the same compound?
Answer: The value was −24.64%.

Question: What about the GI50 [8, 22] of the same compound?
Answer: Its GI50 is 1270 nM.

Question: And the GI50 ([9]; Homo sapiens, T47D, T -47D, five dose 0.01–100 μM)?
Answer: Its GI50 is 1980 nM.

Question: And the “Growth Percent” value ([9]; T-47D, 10 μM)?
Answer: The value was 24.61%.

Question: What about the GI50 ([10]; Homo sapiens, SK-MEL-5, five dose 0.01–100 μM) of the same compound?
Answer: Its GI50 is 820 nM.

Question: And the “Growth Percent” value ([10]; SK-MEL-5, 10 μM)?
Answer: The value was −82.25%.

Question: What about the “Growth Percent” value ([11]; 10 μM) of the same compound?
Answer: Its value is −1.58%.

Question: And the GI50 [11, 22]?
Answer: The GI50 was 1720 nM.

Question: And the “Growth Percent” value ([12]; HCT-116, 10 μM)?
Answer: Its value is −45.63%.

Question: What about the GI50 ([12]; Homo sapiens, HCT-116, five dose 0.01–100 μM) of the same compound?
Answer: The GI50 was 230 nM.

Question: And the GI50 ([13]; Homo sapiens, UO-31, five dose 0.01–100 μM)?
Answer: Its GI50 is 640 nM.

Question: And the “Growth Percent” value ([13]; UO-31, 10 μM)?
Answer: Its value is −97.34%.

Question: What about the “Growth Percent” value ([14]; 10 μM) of the same compound?
Answer: Its value is 17.92%.

Question: What about the GI50 [14, 22] of the same compound?
Answer: Its GI50 is 170 nM.

Question: What about the “Growth Percent” value ([15]; 10 μM) of the same compound?
Answer: Its value is −17.67%.

Question: What about the GI50 [15, 22] of the same compound?
Answer: The GI50 was 940 nM.

Question: What about the GI50 ([16]; Homo sapiens, OVCAR-4, five dose 0.01–100 μM) of the same compound?
Answer: Its GI50 is 1490 nM.

Question: And the “Growth Percent” value ([16]; OVCAR-4, 10 μM)?
Answer: The value was 18.62%.

Question: What about the “Growth Percent” value ([17]; 10 μM) of the same compound?
Answer: Its value is −22.16%.

Question: And the GI50 [17, 22]?
Answer: The GI50 was 1410 nM.

Question: And the “Growth Percent” value ([18]; 10 μM)?
Answer: Its value is −33.54%.

Question: And the GI50 [18, 22]?
Answer: Its GI50 is 800 nM.

Question: What about the GI50 ([19]; Homo sapiens, SF-539, five dose 0.01–100 μM) of the same compound?
Answer: The GI50 was 1020 nM.

Question: What about the “Growth Percent” value ([19]; SF-539, 10 μM) of the same compound?
Answer: Its value is −32.36%.

Question: What about the “Growth Percent” value ([20]; COLO 205, 10 μM) of the same compound?
Answer: Its value is −56.84%.

Question: And the GI50 ([20]; Homo sapiens, COLO 205, five dose 0.01–100 μM)?
Answer: Its GI50 is 1430 nM.

Question: What about the “Selectivity index (SI)” value ([21]; Breast Cancer subpanel) of the same compound?
Answer: The value was 0.96.

Question: What about the “Selectivity index (SI)” value ([21]; CNS Cancer subpanel) of the same compound?
Answer: The value was 0.96.

Question: And the “Selectivity index (SI)” value ([21]; Colon Cancer subpanel)?
Answer: The value was 1.10.

Question: And the GI50 ([21]; Homo sapiens, five-dose testing, all cell lines, read-out: GI50 values, range over the NCI-60 panel)?
Answer: Its GI50 is 30 to 5900 nM.

Question: And the “Selectivity index (SI)” value ([21]; Leukemia subpanel)?
Answer: The value was 5.30.

Question: And the “Selectivity index (SI)” value ([21]; Melanoma subpanel)?
Answer: Its value is 1.01.

Question: And the “Selectivity index (SI)” value ([21]; Non-Small Cell Lung Cancer subpanel)?
Answer: The value was 0.87.

Question: And the “Selectivity index (SI)” value ([21]; Ovarian Cancer subpanel)?
Answer: The value was 0.57.

Question: And the “Selectivity index (SI)” value ([21]; Prostate Cancer subpanel)?
Answer: The value was 1.86.

Question: What about the “Selectivity index (SI)” value ([21]; Renal Cancer subpanel) of the same compound?
Answer: Its value is 1.01.
